Results taken from patent publication US8754227B2, “Metalloenzyme inhibitor compounds” (Viamet Pharmaceuticals, Inc., priority 2010, dated 2014).
≈ marks a conversion by molar mass, not a printed value.

How the values were obtained:
C. albicans = experiment: Minimum Inhibitory Concentration (MIC), CLSI M27-A2; type: cell-based; conditions: Candida albicans; about 50% growth reduction; approximately 48 h at 35°C
Description: Compounds were assessed for their ability to inhibit the growth of common strains of fungus, C. albicans using a standardized procedure (CLSI M27-A2). Stock solutions of the test compounds and standards were prepared in DMSO at 1,600 μg/mL (C. albicans). Eleven, serial, one-half dilutions of compounds were prepared in 96-well plates in RPMI+MOPS. The assay concentration ranges were […] (C. albicans). Cell suspensions of C. albicans were prepared and added to each well at concentrations of approximately 3.7×10^3 colony-forming-units per milliliter (cfu/mL). All testing was in duplicate. The inoculated plates were incubated for approximately 48 h at 35±1° C. At the completion of incubation the wells of each plate were evaluated visually for the presence of fungal growth. […] For QC purposes C. krusei isolate ATCC 6258 (4.0×10^3 efu/mL) was included in the VOR assay.

CYP2C9 = CYP2C9 (Homo sapiens (Human), UniProt P11712); experiment: Inhibition of liver cytochrome P450 enzymes, pooled human liver microsomes; type: in vitro ADME
Description: (§1) Solutions of each test compound were separately prepared at concentrations of 20000, 6000, 2000, 600, 200, and 60 μM by serial dilution with DMSO:MeCN (50:50 v/v). […] The mixed inhibitor solutions were then diluted 20-fold with DMSO:MeCN:deionized water (5:5:180 v/v/v) to concentrations of 300, 100, 30, 10, 3, 1, 0.3, and 0.1 μM. The percent of organic solvent attributable to the test compound or inhibitor mixture in the final reaction mixture was 2% v/v. Pooled human liver microsome suspension (20 mg/mL) was diluted with phosphate buffer to obtain a 5 mg/mL suspension. A solution of NADPH was prepared in phosphate buffer at a concentration of 5 mM. Separate stock solutions of each substrate were prepared in DMSO:MeCN (50:50 v/v), mixed, and diluted in phosphate buffer to obtain a single solution containing each substrate at five times its experimentally determined Km concentration. The percent of organic solvent attributable to substrate mixture in the final reaction mixture was 1% v/v. Substrate solution and microsome suspension were combined in a 1:1 volume ratio, mixed, and distributed to reaction wells of a PCR plate. Individual test compound or combined inhibitor solutions at each concentration were added to the wells and mixed by repetitive aspirate-dispense cycles. […] Reaction mixtures were allowed to equilibrate at 37° C. for approximately two minutes before adding NADPH solution to initiate reaction, followed by pipette mixing of reaction mixture. Ten minutes after addition of NADPH, the reaction mixtures were quenched with cold acetonitrile. […] A portion of the supernatant was analyzed by gradient reverse-phase HPLC with detection by electrospray ionization triple quadrupole mass spectrometry in the positive ion mode. Data was fitted to sigmoid dose-response curves and the inhibitory potency of each test compound was determined as its IC50 value.

CYP2C19 = CYP2C19 (Homo sapiens (Human), UniProt P33261); experiment: as above; type: in vitro ADME
Description: as §1

CYP3A4 = CYP3A4 (Homo sapiens (Human), UniProt P08684); experiment: as above; type: in vitro ADME
Description: as §1

CYP2C9, sequence (P11712 whole entry): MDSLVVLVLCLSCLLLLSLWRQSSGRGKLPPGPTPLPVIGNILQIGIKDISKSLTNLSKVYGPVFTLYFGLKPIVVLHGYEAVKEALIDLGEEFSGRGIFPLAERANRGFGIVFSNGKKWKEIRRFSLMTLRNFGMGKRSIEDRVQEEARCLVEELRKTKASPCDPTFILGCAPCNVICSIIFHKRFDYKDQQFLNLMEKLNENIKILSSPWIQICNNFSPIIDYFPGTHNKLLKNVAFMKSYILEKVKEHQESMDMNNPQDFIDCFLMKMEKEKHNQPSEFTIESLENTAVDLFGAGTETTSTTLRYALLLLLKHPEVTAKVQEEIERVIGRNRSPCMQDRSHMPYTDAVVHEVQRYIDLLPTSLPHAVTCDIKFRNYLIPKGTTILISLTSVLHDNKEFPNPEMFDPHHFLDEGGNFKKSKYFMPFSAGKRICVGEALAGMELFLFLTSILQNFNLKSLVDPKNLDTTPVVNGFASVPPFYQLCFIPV
CYP3A4, sequence (P08684 whole entry): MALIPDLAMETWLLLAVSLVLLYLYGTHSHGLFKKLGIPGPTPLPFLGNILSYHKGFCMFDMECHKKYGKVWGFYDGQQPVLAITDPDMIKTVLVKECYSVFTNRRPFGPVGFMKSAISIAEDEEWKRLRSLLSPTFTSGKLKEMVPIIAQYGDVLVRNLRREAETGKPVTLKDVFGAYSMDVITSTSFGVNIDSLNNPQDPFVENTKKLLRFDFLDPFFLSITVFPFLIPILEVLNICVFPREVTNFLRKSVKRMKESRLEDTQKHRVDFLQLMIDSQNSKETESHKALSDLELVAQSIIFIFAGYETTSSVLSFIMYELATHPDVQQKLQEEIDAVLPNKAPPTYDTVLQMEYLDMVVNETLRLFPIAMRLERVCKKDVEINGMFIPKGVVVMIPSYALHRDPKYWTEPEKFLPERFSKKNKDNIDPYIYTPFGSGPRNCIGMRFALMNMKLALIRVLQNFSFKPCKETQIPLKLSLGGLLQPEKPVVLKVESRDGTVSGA
CYP2C19, sequence (P33261 whole entry): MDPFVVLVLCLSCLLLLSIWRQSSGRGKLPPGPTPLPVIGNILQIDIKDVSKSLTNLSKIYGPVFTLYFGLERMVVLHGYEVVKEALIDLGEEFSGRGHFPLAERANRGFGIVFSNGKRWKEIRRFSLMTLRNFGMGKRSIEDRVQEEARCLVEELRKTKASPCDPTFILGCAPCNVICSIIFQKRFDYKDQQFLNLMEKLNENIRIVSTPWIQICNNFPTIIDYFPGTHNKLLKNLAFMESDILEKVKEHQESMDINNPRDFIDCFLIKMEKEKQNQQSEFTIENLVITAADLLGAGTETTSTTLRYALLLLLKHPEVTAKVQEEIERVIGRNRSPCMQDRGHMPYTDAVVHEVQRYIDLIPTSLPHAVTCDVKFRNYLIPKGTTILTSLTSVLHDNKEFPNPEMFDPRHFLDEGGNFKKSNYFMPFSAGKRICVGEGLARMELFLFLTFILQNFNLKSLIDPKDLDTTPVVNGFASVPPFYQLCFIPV

MIC (C. albicans) [ng/mL]	IC50 (CYP2C9) [µM]	IC50 (CYP2C19) [µM]	IC50 (CYP3A4) [µM]	SMILES
≤ 1	3.1	11	3.8	OC(Cn1cncn1)(c1ccc(F)cc1F)C(F)(F)c1ccc(-c2ccc(OC(F)(F)F)cc2)cn1 [Example 18, 2-(2,4-Difluorophenyl)-1,1-difluoro-3-(1H-1,2,4-triazol-1-yl)-L-(5-(4-(trifluoromethoxy)phenyl)pyridin-2-yl)propan-2-ol]
2 (≈ 4.48 nM)	–	–	–	OC(Cn1cncn1)(c1ccc(F)cc1F)C(F)(F)c1ccc(-c2ccc(F)cc2)cn1 (stereo not drawn) [Example 16, 2-(2,4-Difluorophenyl)-1,1-difluoro-1-(5-(4-fluorophenyl)pyridin-2-yl)-3-(1H-1,2,4-triazol-1-yl)propan-2-ol]
≤ 1	–	–	–	OC(Cn1cncn1)(c1ccc(F)cc1F)C(F)(F)c1ccc(-c2ccc(OCC(F)(F)F)cc2)cn1 (stereo not drawn) [Example 17, 2-(2,4-difluorophenyl)-1,1-difluoro-3-(1H-1,2,4-triazol-1-yl)-1-(5-(4-(2,2,2-trifluoroethoxy)phenyl)pyridin-2-yl)propan-2-ol]
